# Reference: article PMC7765952, “N-(Hydroxyalkyl) Derivatives of tris(1H-indol-3-yl)methylium Salts as Promising Antibacterial Agents: Synthesis and Biological Evaluation” (Pharmaceuticals, 2020)
# Like-named read-outs stand apart in the source and are kept apart here.
# Tests used:
# [1] = test system: S. aureus ATCC 25923; test: MIC by microdilution, S. aureus ATCC 25923; format: cell-based; details: Staphylococcus aureus, ATCC25923
# Procedure: (§1) Compounds were tested against Gram-positive and Gram-negative bacteria, including sensitive or drug resistant strains from American Type Culture Collection (ATCC), as well as resistant clinical isolates from the culture collection of the Laboratory for Control of Hospital Infections (Sechenov University, Moscow, Russia). Collection cultures of Gram-positive bacteria: Staphylococcus aureus ATCC 25923, Staphylococcus aureus ATCC 3798, Staphylococcus aureus ATCC 700,699 and clinical isolates of Gram-positive bacteria: Staphylococcus aureus 5, Staphylococcus aureus 10, Staphylococcus aureus 100 KS, Staphylococcus epidermidis 533, Enterococcus faecium 569 and collection cultures of Gram-negative bacteria: Escherichia coli ATCC 25922, Klebsiella pneumoniae ATCC 13883, Salmonella cholerasuis ATCC 14,028 were used.
# (§2) For the cultivation of the strains, various nutrient media were used: Trypticase Soy Agar BBL for Staphylococcus sp., E. coli, K. pneumoniae, S. cholerasuis and Columbia Agar Base BBL for the cultivation of Enterococcus sp. Cultures grown on appropriate nutrient media at 35 °C for 1 day were used to set up experiments. For determination of the antibacterial action Mueller-Hinton (Acumedia, Baltimore, MD, USA) liquid medium was used. The minimum inhibitory concentrations (MIC) were determined by the microdilution method in 96 well sterile plates in a cation-adjusted Müller-Hinton medium in accordance with the requirements of the Institute of Clinical and Laboratory Standards (CLSI/NCCLS). MIC was defined as the minimum drug concentration that completely prevents the growth of the test organism.
# [2] = test system: S. aureus 10; test: MIC by microdilution, S. aureus 10; format: cell-based; details: Staphylococcus aureus
# Procedure: as §1, §2
# [3] = test system: S. aureus 5; test: MIC by microdilution, S. aureus 5; format: cell-based; details: Staphylococcus aureus
# Procedure: as §1, §2
# [4] = test system: S. aureus 100 KC; test: MIC by microdilution, S. aureus 100 KC; format: cell-based; details: Staphylococcus aureus
# Procedure: as §1, §2
# [5] = test system: S. aureus ATCC 3798; test: MIC by microdilution, S. aureus ATCC 3798; format: cell-based; details: Staphylococcus aureus, ATCC3798
# Procedure: as §1, §2
# [6] = test system: S. aureus ATCC 700699; test: MIC by microdilution, S. aureus ATCC 700699; format: cell-based, Staphylococcus aureus
# Procedure: as §1, §2
# [7] = test system: S. epidermidis 533; test: MIC by microdilution, S. epidermidis 533; format: cell-based; details: Staphylococcus epidermidis
# Procedure: as §1, §2
# [8] = test system: E. faecium 569; test: MIC by microdilution, E. faecium 569; format: cell-based, Enterococcus faecium
# Procedure: as §1, §2
# [9] = test system: E. coli ATCC 25922; test: MIC by microdilution, E. coli ATCC 25922; format: cell-based, Escherichia coli
# Procedure: as §1, §2
# [10] = test system: K. pneumoniae ATCC 13883; test: MIC by microdilution, K. pneumoniae ATCC 13883; format: cell-based; details: Klebsiella pneumoniae, ATCC13883
# Procedure: as §1, §2
# [11] = test system: S. cholerasuis ATCC 14028; test: MIC by microdilution, S. cholerasuis ATCC 14028; format: cell-based; details: Salmonella, ATCC14028
# Procedure: as §1, §2
# [12] = test system: P. aeruginosa ATCC 27853; test: MIC by microdilution, P. aeruginosa ATCC 27853; format: cell-based; details: Pseudomonas aeruginosa, ATCC27853
# Procedure: as §2
# [13] = Determination of lipophilicity, LogPow by HPLC method; format: physicochemical; details: experimental, pH 7.4
# From the text: We used the partition coefficient as an indicator of lipophilicity. The partition coefficient (P) is defined as the ratio of the equilibrium solute concentrations in a two-phase system of immiscible solvents. The most common in practice is the octanol-water (Pow) system. The partition coefficient is usually represented as a decimal logarithm (LogPow). It can be measured in several ways. A most advanced, accurate, and less time-consuming is the HPLC method for determining Pow using high-performance liquid chromatography. HPLC is performed on an analytical column with a solid phase containing long hydrocarbon chains chemically bound to silica gel. The retention time on such a column (Rt) is directly related to the partition coefficient Pow. The most informative in our case was the partition coefficient at a physiological pH value of 7.4. It was at this pH that the main biological experiments with the studied substances were carried out, namely tests of antimicrobial activity and cytotoxicity. HPLC was performed on a Shimadzu LC-20AD system using Kromasil-100-5-C18 (Akzo-Nobel) column, 4.6 × 250 mm, 20 °C temperature, UV detection, mobile phase A—0.2% HCOONH4), mobile phase B-MeCN, (pH 7.4), fl-1 mL/min., loop 20 mkl. After calibration using substances with a known LogPow, it is possible to recalculate Rt to LogPow. For calibration, we used aniline (LogPow 0.9), p-chloroaniline (LogPow 1.8), diphenylamine (LogPow 3.4), triphenylamine (LogPow 5.7).
# [14] = substances with a known LogPow used for HPLC calibration; cited from earlier work
# [15] = test system: Gram-positive and Gram-negative bacteria; test: Antibacterial activity in vitro, strain panel in general; format: cell-based; details: general statement over the strain panel
# Procedure: as §1, §2
# [16] = S. aureus ATCC 25923, sensitive to all antibiotics, read-out: MIC
# [17] = clinical isolate S. aureus 10, sensitive to all antibiotics, read-out: MIC
# [18] = S. aureus 5, methicillin resistant (MRSA) clinical isolate, read-out: MIC
# [19] = S. aureus 100 KC, methicillin resistant (MRSA) clinical isolate, read-out: MIC
# [20] = S. aureus ATCC 3798, multiresistant incl. ciprofloxacin, levofloxacin, read-out: MIC
# [21] = Staphylococcus aureus, ATCC700699, S. aureus ATCC 700699, resistant to levofloxacin, read-out: MIC
# [22] = S. epidermidis 533, resistant to gentamicin, read-out: MIC
# [23] = Enterococcus faecium, E. faecium 569, resistant to cefuroxime, clindamycin, gentamycin, vancomycin, doxycycline, read-out: MIC
# [24] = Escherichia coli, ATCC25922, E. coli ATCC 25922, read-out: MIC
# [25] = K. pneumoniae ATCC 13883, read-out: MIC
# [26] = S. cholerasuis ATCC 14028, read-out: MIC
# [27] = P. aeruginosa ATCC 27853, read-out: MIC
# [28] = S. aureus ATCC 700699, resistant to levofloxacin
SMILES,"MIC [1, 16] [µg/mL]","MIC [2, 17] [µg/mL]","MIC [3, 18] [µg/mL]","MIC [4, 19] [µg/mL]","MIC [5, 20] [µg/mL]","MIC [6, 21] [µg/mL]","MIC [7, 22] [µg/mL]","MIC [8, 23] [µg/mL]","MIC [9, 24] [µg/mL]","MIC [10, 25] [µg/mL]","MIC [11, 26] [µg/mL]","MIC [12, 27] [µg/mL]",LogPow [13],LogPow of calibration substances [14],also measured
"CCN(CC)c1ccc(C(=C2C=CC(=[N+](CC)CC)C=C2)c2ccccc2)cc1 [BG, brilliant green, reference compound]",,,,,,,,,,,,,,,"MIC [1]: 0.06 µg/mL; MIC [2]; 10: 0.13 µg/mL; MIC ([3]; MRSA): 0.06 µg/mL; MIC ([4]; MRSA): 0.06 µg/mL; MIC [5]: 0.06 µg/mL; MIC ([6]; Staphylococcus aureus, ATCC700699): 1 µg/mL; MIC [7]; 533: 0.06 µg/mL; MIC ([8]; Enterococcus faecium, 569): 0.25 µg/mL; MIC ([9]; Escherichia coli, ATCC25922): 4 µg/mL; MIC [10]: 8 µg/mL; MIC [11]: 16 µg/mL; MIC [12]: > 64 µg/mL"
"OCCCn1cc([C+](c2cn(CCCO)c3ccccc23)c2cn(CCCO)c3ccccc23)c2ccccc21.[Cl-] [8b, tris(1-(3-Hydroxypropyl)-1H-indol-3-yl)methylium chloride]",32,8,16,16,16,> 64,32,32,> 64,> 64,> 64,> 64,1.2,,
"OCCCCn1cc([C+](c2cn(CCCCO)c3ccccc23)c2cn(CCCCO)c3ccccc23)c2ccccc21.[Cl-] [8c, tris(1-(4-Hydroxybutyl)-1H-indol-3-yl)methylium chloride]",16,8,8,16,16,8,16,> 64,32,8,> 64,> 64,2.9,,
Nc1ccc(Cl)cc1 [p-chloroaniline],,,,,,,,,,,,,,1.8,
c1ccc(N(c2ccccc2)c2ccccc2)cc1 [triphenylamine],,,,,,,,,,,,,,5.7,
Nc1ccccc1 [aniline],,,,,,,,,,,,,,0.9,
c1ccc(Nc2ccccc2)cc1 [diphenylamine],,,,,,,,,,,,,,3.4,
"OCCn1cc([C+](c2cn(CCO)c3ccccc23)c2cn(CCO)c3ccccc23)c2ccccc21.[Cl-] [8a, tris(1-(2-Hydroxyethyl)-1H-indol-3-yl)methylium chloride]",32,16,64,64,32,32,32,> 64,16,> 64,> 64,> 64,1.15,,
"C[C@H]1COc2c(N3CCN(C)CC3)c(F)cc3c(=O)c(C(=O)O)cn1c23 [Lf, levofloxacin, reference compound]",0.25,0.13,0.25,32,32,16,0.5,1,0.06,0.25,0.13,1,,,
"OCCCCCn1cc([C+](c2cn(CCCCCO)c3ccccc23)c2cn(CCCCCO)c3ccccc23)c2ccccc21.[Cl-] [8d, tris(1-(5-Hydroxypentyl)-1H-indol-3-yl)methylium chloride]",2,1,4,2,2,2,1,8,8,2,> 64,> 64,4,,"MIC [6, 28]: active; MIC ([9]; E. coli ATCC 25922): moderate level of activity; MIC (antibacterial activity, strains not specified) [15]: highly active against Gram-positive bacteria"
"OCCCCCCn1cc([C+](c2cn(CCCCCCO)c3ccccc23)c2cn(CCCCCCO)c3ccccc23)c2ccccc21.[Cl-] [8e, tris(1-(6-hydroxyhexyl)-1H-indol-3-yl)methylium chloride]",0.5,0.5,0.5,0.5,0.5,0.5,0.5,> 64,8,8,> 64,> 64,5.4,,"MIC [6, 28]: active; MIC ([8]; E. faecium 569, resistant to cefuroxime, clindamycin, gentamycin, vancomycin, doxycycline): >64 µg/mL; MIC ([9]; E. coli ATCC 25922): moderate level of activity; MIC (antibacterial activity, strains not specified) [15]: highly active against Gram-positive bacteria; MIC ([15]; read-out: MIC (antibacterial activity, strains not specified)): 0.5 µg/mL"
